Data: US7541367B2, “3-benzoimidazolyl-pyrazolopyridines useful in treating kinase disorders” (Janssen Pharmaceutica, N.V., priority 2005, dated 2009)

Tests used:
CDK1 = target: T1, CDK1 (Homo sapiens, UniProt P06493); assay: CDK-1 kinase screening assay (33P-ATP FlashPlate); format: biochemical; conditions: human CDK1 with cyclin B; 10 μM ATP; 1 hr at 30° C
T1 construct: purchased New England Biolabs, Beverly, Mass; 6020; host or cells: insect cells

VEGF-R2 = target: T2, VEGF-R2 (Rattus norvegicus, UniProt O08775); assay: VEGF-R2 kinase screening assay (33P-ATP FlashPlate); format: biochemical; conditions: rat VEGF-R2 kinase domain; 10 μM ATP; 1 hr at 30° C;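 further: Read-out is ³³P incorporation from ³³P-γ-ATP into biotinylated peptide substrate captured on streptavidin FlashPlate, counted by scintillation, 1% DMSO final, inhibition scaled between per-plate maximum and minimum signals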
T2 construct: polyhistidine (N)
T2 sequence (O08775 786-1343): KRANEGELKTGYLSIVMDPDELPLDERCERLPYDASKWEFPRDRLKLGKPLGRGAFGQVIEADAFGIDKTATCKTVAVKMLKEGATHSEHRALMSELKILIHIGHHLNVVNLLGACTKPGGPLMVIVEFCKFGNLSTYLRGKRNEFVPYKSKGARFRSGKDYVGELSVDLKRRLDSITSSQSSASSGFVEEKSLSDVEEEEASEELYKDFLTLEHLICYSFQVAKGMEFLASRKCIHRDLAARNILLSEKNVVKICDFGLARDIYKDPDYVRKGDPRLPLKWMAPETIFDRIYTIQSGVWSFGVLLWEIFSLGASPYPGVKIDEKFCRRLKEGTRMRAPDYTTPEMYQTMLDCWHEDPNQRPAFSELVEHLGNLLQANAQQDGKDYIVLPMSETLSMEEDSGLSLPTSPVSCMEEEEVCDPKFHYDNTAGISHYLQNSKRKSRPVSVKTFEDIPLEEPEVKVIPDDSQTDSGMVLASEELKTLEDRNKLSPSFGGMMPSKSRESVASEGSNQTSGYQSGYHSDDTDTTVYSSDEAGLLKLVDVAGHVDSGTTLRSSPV

HER2 = target: T3, HER2 (Homo sapiens, UniProt P04626); assay: HER2 kinase screening assay (33P-ATP FlashPlate); format: biochemical; conditions: GST-HIS6 HER-2 aa 679 to 1255; 10 μM ATP; 1 hr at 30° C;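 further: Biotin-poly(GT) 4:1 peptide captured on streptavidin FlashPlate, 33P transfer from γ-ATP read by scintillation counting, lower incorporation means inhibition, 1% DMSO final, 100 µL reaction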
T3 construct: GST (Glutathione-S-Transferase) (N); HIS6 (N); thrombin cleavage site (N); purchased Proqinase, Freiburg, Germany
T3 sequence (P04626 679-1255): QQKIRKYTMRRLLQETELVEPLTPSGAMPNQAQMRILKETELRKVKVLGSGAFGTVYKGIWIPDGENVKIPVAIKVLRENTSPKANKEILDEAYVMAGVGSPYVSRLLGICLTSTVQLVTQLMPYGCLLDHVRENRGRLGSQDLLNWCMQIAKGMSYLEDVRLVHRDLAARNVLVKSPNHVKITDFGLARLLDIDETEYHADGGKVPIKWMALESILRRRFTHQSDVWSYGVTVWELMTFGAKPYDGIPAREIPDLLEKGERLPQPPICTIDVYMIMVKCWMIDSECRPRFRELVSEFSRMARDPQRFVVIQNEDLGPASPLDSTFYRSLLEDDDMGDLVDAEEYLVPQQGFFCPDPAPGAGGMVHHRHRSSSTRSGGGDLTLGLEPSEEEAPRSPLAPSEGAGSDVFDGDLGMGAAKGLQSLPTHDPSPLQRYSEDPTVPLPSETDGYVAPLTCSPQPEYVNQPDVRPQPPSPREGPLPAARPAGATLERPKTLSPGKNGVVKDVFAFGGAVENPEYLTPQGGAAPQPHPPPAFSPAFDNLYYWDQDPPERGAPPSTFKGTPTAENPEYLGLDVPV

Aurora-A = target: T4, Aurora-A (Mus musculus, UniProt P97477); assay: Aurora-A kinase screening assay (33P-ATP FlashPlate); format: biochemical; conditions: 10 μM ATP, 1 hr at 30° C;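 further: His-tagged mouse Aurora-A phosphorylating a biotinylated peptide captured on streptavidin plates, read as 33P uptake by scintillation counting, 1% DMSO, inhibition scaled between per-plate maximum and minimum signals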
T4 construct: polyhistidine (N)
T4 sequence (P97477 1-395): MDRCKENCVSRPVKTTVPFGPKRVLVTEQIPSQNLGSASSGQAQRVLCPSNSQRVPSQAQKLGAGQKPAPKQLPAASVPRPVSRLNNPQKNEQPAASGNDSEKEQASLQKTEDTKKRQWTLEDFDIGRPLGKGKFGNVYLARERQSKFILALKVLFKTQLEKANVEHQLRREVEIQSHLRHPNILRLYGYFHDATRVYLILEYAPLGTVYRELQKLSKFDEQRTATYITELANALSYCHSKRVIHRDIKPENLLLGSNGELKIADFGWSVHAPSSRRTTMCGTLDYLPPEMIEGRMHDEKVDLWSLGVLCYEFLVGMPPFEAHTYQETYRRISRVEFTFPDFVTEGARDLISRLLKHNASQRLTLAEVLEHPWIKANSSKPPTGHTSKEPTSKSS

RET = target: T5, RET (Homo sapiens, UniProt P07949); assay: RET kinase screening assay (33P-ATP FlashPlate); format: biochemical; conditions: human RET kinase domain; 10 μM ATP; 1 hr at 30° C;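 further: biotinylated peptide substrate captured on streptavidin FlashPlate, 33P phosphate transfer read by scintillation counting, 1% DMSO, lower incorporation means inhibition, percent relative to per-plate maximum and minimum signals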
T5 construct: polyhistidine (N)
T5 sequence (P07949 658-1114 limits assumed): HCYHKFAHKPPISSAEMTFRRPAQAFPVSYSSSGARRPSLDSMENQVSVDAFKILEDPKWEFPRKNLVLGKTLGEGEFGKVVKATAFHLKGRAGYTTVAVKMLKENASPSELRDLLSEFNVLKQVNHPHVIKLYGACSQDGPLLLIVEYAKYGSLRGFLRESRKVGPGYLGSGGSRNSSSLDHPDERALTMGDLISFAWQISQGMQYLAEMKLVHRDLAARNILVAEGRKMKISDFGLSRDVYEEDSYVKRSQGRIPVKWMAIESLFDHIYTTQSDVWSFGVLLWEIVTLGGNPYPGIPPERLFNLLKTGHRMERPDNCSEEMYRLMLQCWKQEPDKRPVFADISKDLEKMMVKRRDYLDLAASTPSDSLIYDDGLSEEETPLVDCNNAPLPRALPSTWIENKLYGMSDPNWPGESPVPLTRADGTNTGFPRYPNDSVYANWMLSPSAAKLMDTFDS

[1] = test system: HeLa cervical adenocarcinoma; assay: Cell Proliferation Inhibition Assay (14C-thymidine incorporation), HeLa; format: cell-based; conditions: Homo sapiens, HeLa, HeLa cells;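 further: test compound in DMSO added to cells seeded in scintillating 96-well plates, DMSO-only wells as control, uptake of methyl 14C-thymidine into new DNA counted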
A375 malignant melanoma = assay: Cell Proliferation Inhibition Assay (14C-thymidine incorporation), A375; format: cell-based; conditions: Homo sapiens, A-375, A375 cells;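 further: proliferation measured by radiolabelled thymidine uptake into new DNA, counted in scintillating 96-well plates, compound-treated wells compared with DMSO-only control wells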
HCT-116 colon carcinoma = assay: Cell Proliferation Inhibition Assay (14C-thymidine incorporation), HCT-116; format: cell-based; conditions: Homo sapiens, HCT-116, HCT-116 cells;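 further: proliferation measured as methyl 14C-thymidine uptake into new DNA, counted in 96-well scintillating microplates, compared with DMSO-only control wells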

T1 sequence (P06493 whole entry): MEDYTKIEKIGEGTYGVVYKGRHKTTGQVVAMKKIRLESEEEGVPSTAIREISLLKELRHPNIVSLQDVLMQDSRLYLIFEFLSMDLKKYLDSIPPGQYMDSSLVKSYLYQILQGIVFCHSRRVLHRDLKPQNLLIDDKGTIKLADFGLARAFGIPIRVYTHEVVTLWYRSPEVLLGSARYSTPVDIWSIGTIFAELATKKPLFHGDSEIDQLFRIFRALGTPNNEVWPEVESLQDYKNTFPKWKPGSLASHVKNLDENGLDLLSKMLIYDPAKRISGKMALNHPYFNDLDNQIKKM
T1 sequence (P14635 whole entry partner): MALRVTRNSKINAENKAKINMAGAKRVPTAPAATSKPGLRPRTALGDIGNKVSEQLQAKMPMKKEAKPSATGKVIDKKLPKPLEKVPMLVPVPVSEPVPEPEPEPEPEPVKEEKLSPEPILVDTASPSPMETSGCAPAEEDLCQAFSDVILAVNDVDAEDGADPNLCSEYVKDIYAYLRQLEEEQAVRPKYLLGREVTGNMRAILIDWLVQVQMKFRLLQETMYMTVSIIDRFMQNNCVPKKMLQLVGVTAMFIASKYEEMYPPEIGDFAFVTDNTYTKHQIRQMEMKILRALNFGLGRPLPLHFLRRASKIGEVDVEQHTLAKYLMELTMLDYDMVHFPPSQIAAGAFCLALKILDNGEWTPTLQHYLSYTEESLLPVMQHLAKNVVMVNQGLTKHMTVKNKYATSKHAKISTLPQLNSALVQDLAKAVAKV

Row | SMILES | IC50 (CDK1) [nM] | IC50 (VEGF-R2) [nM] | IC50 (HER2) [nM] | IC50 (Aurora-A) [nM] | IC50 (RET) [nM] | IC50 [1] [nM] | IC50 (A375 malignant melanoma) [nM] | IC50 (HCT-116 colon carcinoma) [nM]
1 | FC1(F)Oc2cc3nc(-c4n[nH]c5ncc(-c6cccnc6)cc45)[nH]c3cc2O1 [Cpd 98, 2,2-difluoro-6-(5-pyridin-3-yl-1H-pyrazolo[3,4-b]pyridin-3-yl)-5H-[1,3]dioxolo[4′,5′:4,5]benzo[1,2-d]imidazole] | 6.6 | > 100 | > 100000 | > 10000 | > 100000 | 1610 | 1080 | 943
2 | COCc1cccc2[nH]c(-c3n[nH]c4ncc(-c5cncc(CNC(C)(C)C)c5)cc34)nc12 [Cpd 53, tert-butyl-{5-[3-(4-methoxymethyl-1H-benzoimidazol-2-yl)-1H-pyrazolo[3,4-b]pyridin-5-yl]-pyridin-3-ylmethyl}-amine] | 104 | 37 | > 10000 | 1520 | > 1000 | 709 | 328 | 391
3 | O=C(c1cccc2[nH]c(-c3n[nH]c4ncc(-c5cncc6ccccc56)cc34)nc12)N1CCOCC1 [Cpd 24, [2-(5-isoquinolin-4-yl-1H-pyrazolo[3,4-b]pyridin-3-yl)-1H-benzoimidazole-4-yl]-morpholin-4-yl-methanone] | 42 | 4620 | > 10000 | 2790 | ~100000 | 460 | 490 | 743
4 | O=C(c1cccc2[nH]c(-c3n[nH]c4ncc(-c5cncc6ccccc56)cc34)nc12)N1CCCCC1 [Cpd 22, [2-(5-isoquinolin-4-yl-1H-pyrazolo[3,4-b]pyridin-3-yl)-1H-benzoimidazol-4-yl]-piperidin-1-yl-methanone] | 137 | 2120 | > 10000 | 1990 | ~100000 | 594 | 188 | 554
5 | COCc1cccc2[nH]c(-c3n[nH]c4ncc(-c5cncc6ccccc56)cc34)nc12 [Cpd 4, 4-[3-(4-methoxymethyl-1H-benzoimidazol-2-yl)-1H-pyrazolo[3,4-b]pyridin-5-yl]-isoquinoline] | 5.61 | 461 | 85.1 | 324 | > 10000 | 14.8 | 10.1 | 10.1
6 | COCCOCc1cccc2[nH]c(-c3n[nH]c4ncc(-c5cncc6ccccc56)cc34)nc12 [Cpd 14, 4-{3-[4-(2-methoxy-ethoxymethyl)-1H-benzoimidazol-2-yl]-1H-pyrazolo[3,4-b]pyridin-5-yl}-isoquinoline] | 72.1 | 4570 | > 100000 | > 1000 | ~100000 | 1000 | 649 | 312
7 | CN(C)CCN(C)C(=O)c1cccc2[nH]c(-c3n[nH]c4ncc(-c5cncc6ccccc56)cc34)nc12 [Cpd 26, 2-(5-isoquinolin-4-yl-1H-pyrazolo[3,4-b]pyridin-3-yl)-1H-benzoimidazole-4-carboxylic acid (2-dimethylamino-ethyl)-methyl-amide] | 244 | > 10000 | > 10000 | 12100 | ~100000 | 1160 | 1210 | 890
8 | c1cncc(-c2cnc3[nH]nc(-c4nc5cc6c(cc5[nH]4)OCO6)c3c2)c1 [Cpd 99, 6-(5-pyridin-3-yl-1H-pyrazolo[3,4-b]pyridin-3-yl)-5H-[1,3]dioxolo[4′,5′:4,5]benzo[1,2-d]imidazole] | 3.3 | ~1000 | > 100000 | ~10000 | > 100000 | 471 | 489 | 271
9 | c1ccc2c(-c3cnc4[nH]nc(-c5nc6c(COCCN7CCOCC7)cccc6[nH]5)c4c3)cncc2c1 [Cpd 15, 4-{3-[4-(2-morpholin-4-yl-ethoxymethyl)-1H-benzoimidazol-2-yl]-1H-pyrazolo[3,4-b]pyridin-5-yl}-isoquinoline] | 33 | ~1000 | ~100000 | 2270 | 929 | 8520 | 7610 | 5820
10 | CCCCNCc1cncc(-c2cnc3[nH]nc(-c4nc5c(COC)cccc5[nH]4)c3c2)c1 [Cpd 79, butyl-{5-[3-(4-methoxymethyl-1H-benzoimidazol-2-yl)-1H-pyrazolo[3,4-b]pyridin-5-yl]-pyridin-3-ylmethyl}-amine] | 6.81 | ~1000 | > 10000 | 2450 | > 10000 | 417 | 343 | 218
11 | CCN(CC)Cc1cccc2[nH]c(-c3n[nH]c4ncc(Br)cc34)nc12 [Cpd 6, [2-(5-bromo-1H-pyrazolo[3,4-b]pyridin-3-yl)-1H-benzoimidazol-4-ylmethyl]-diethyl-amine] | 77.6 | 952 | 89.4 | 975 | > 10000 | 354 | 255 | 259
12 | O=C(NC1CCC(O)CC1)c1cccc2[nH]c(-c3n[nH]c4ncc(-c5cncc6ccccc56)cc34)nc12 (centres unmarked) [Cpd 29, 2-(5-isoquinolin-4-yl-1H-pyrazolo[3,4-b]pyridin-3-yl)-1H-benzoimidazole-4-carboxylic acid (4-hydroxy-cyclohexyl)-amide] | 11.6 | 232 | > 100000 | ~1000 | ~1000 | 205 | 69.7 | 255
13 | CN(C)CCNC(=O)c1cccc2[nH]c(-c3n[nH]c4ncc(-c5cncc6ccccc56)cc34)nc12 [Cpd 25, 2-(5-isoquinolin-4-yl-1H-pyrazolo[3,4-b]pyridin-3-yl)-1H-benzoimidazole-4-carboxylic acid (2-dimethylamino-ethyl)-amide] | 113 | ~100000 | > 10000 | > 1000 | > 100000 | 3800 | 2020 | 1220
14 | O=C(O)c1cccc2[nH]c(-c3n[nH]c4ncc(-c5cncc6ccccc56)cc34)nc12 [Cpd 17, 2-(5-isoquinolin-4-yl-1H-pyrazolo[3,4-b]pyridin-3-yl)-1H-benzoimidazole-4-carboxylic acid] | 541 | > 10000 | > 100000 | > 10000 | > 100000 | > 10000 | > 10000 | > 10000
15 | COCc1cccc2[nH]c(-c3n[nH]c4ncc(-c5cnccc5C)cc34)nc12 [Cpd 57, 3-(4-methoxymethyl-1H-benzoimidazol-2-yl)-5-(4-methyl-pyridin-3-yl)-1H-pyrazolo[3,4-b]pyridine] | 66.3 | > 1000 | > 100000 | > 1000 | > 10000 | 685 | 119 | 68.7
16 | CCOCCOCc1cccc2[nH]c(-c3n[nH]c4ncc(-c5cncc6ccccc56)cc34)nc12 [Cpd 16, 4-{3-[4-(2-ethoxy-ethoxymethyl)-1H-benzoimidazol-2-yl]-1H-pyrazolo[3,4-b]pyridin-5-yl}-isoquinoline] | 65.5 | 60.7 | > 100000 | > 1000 | > 1000 | 632 | 910 | 237
